We go through one molecule from BindingDB's records for doi:10.1021/ml100146z (2010).

This test addresses Signal transducer and activator of transcription 3 (Homo sapiens, UniProt P40763). The experiment in a line: Inhibition of STAT3 in human HeLa cells after 24 hrs by luciferase reporter gene assay.

Sequence of Signal transducer and activator of transcription 3 (P40763 whole entry): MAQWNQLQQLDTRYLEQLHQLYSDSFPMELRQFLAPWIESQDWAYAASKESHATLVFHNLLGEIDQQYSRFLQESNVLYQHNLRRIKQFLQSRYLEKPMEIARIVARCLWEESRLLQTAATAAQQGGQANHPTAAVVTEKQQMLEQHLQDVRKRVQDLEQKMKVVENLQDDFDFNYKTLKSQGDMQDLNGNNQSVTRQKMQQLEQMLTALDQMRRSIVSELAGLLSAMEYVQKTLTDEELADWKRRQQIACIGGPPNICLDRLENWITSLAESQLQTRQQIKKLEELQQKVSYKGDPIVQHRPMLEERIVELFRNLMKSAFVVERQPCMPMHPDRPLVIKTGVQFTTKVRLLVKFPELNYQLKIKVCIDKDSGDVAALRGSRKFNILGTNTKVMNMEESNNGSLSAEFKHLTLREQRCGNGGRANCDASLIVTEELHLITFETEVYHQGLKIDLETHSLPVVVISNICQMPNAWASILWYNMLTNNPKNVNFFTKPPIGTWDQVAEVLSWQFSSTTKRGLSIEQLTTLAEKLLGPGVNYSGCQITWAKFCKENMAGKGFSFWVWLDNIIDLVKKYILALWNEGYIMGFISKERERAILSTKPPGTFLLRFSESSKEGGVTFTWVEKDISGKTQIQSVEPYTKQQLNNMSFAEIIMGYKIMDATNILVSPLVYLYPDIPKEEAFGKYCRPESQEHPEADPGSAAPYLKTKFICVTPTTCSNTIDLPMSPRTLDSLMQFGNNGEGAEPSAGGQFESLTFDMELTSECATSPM

As a reminder, the IC50 is the concentration at which inhibition is half-maximal. Low values mean greater potency in that assay, high ones weaker potency in that assay. In turn, `O=C(Nc1ccc([N+](=O)[O-])cc1Cl)c1cc(Cl)ccc1O` [5-chloro-N-(2-chloro-4-nitrophenyl)-2-hydroxybenzamide] showed an IC50 of 250 nM.
